Where two headings read alike, the source gives them in different places.
Columns and labels:
[1] = test system: HT1080 (human fibrosarcoma cells); assay: MTT cancer cell growth inhibition; type: cell-based; conditions: MTT, 72 hours incubation, read-out: GI50 HT1
Outline: (§1)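 Absorbance at 570 nm of DMSO-dissolved formazan, formed during a 4 h MTT incubation, served as the viability measure. Cells had been exposed 72 h to drug at 10^−5–10^−10 M final; GI50 was calculated from these readings.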

[2] = test system: A549 (human lung cancer cells); assay: MTT cancer cell growth inhibition; type: cell-based; conditions: MTT, 72 hours incubation, read-out: GI50 A54
Outline: as §1

[3] = test system: H1975 (non-small cell lung adenocarcinoma); assay: MTT cancer cell growth inhibition; type: cell-based; conditions: MTT, 72 hours incubation, H1975 cells, read-out: GI50 H1975
Outline: as §1

[4] = test system: PANC-1 (Pac-1, human pancreatic cancer cells); assay: MTT cancer cell growth inhibition; type: cell-based; conditions: MTT, 72 hours incubation, read-out: GI50 PAN
Outline: as §1

[5] = test system: N-87 (human gastric cancer cells); assay: MTT cancer cell growth inhibition; type: cell-based; conditions: MTT, 72 hours incubation, N-87 cells, read-out: GI50 N-87
Outline: as §1

[6] = test system: lncap (prostate cancer cells); assay: MTT cancer cell growth inhibition; type: cell-based; conditions: MTT, 72 hours incubation, read-out: GI50 lnca
Outline: as §1

[7] = test system: Huh-7 (human hepatoma cells); assay: MTT cancer cell growth inhibition; type: cell-based; conditions: MTT, 72 hours incubation, Huh-7 cells, read-out: GI50 Huh-7
Outline: as §1

[8] = test system: MCF-7 (human breast cancer cells); assay: MTT cancer cell growth inhibition; type: cell-based; conditions: 72 hours incubation, read-out: GI50 MCF
Outline: as §1

[9] = test system: SGC-7901 (human gastric cancer cells); assay: MTT cancer cell growth inhibition; type: cell-based; conditions: MTT, 72 hours incubation, SGC-7901 cells, read-out: GI50 SGC-7901
Outline: as §1

[10] = test system: Bel-7402 (human hepatoma cells); assay: MTT cancer cell growth inhibition; type: cell-based; conditions: MTT, 72 hours incubation, Bel-7402 cells, read-out: GI50 Bel-7402
Outline: as §1

[11] = test system: KBM5-T315I (human chronic myelogenous leukemia); assay: MTT cancer cell growth inhibition; type: cell-based; conditions: MTT, 72 hours incubation, KBM5-T315I cells, read-out: GI50 KBM5-T315I
Outline: as §1

[12] = test system: KBM-5 (human chronic myelogenous leukemia); assay: MTT cancer cell growth inhibition; type: cell-based; conditions: MTT, 72 hours incubation, KBM-5 cells, read-out: GI50 KBM-5
Outline: as §1

[13] = test system: Hela (human cervical cancer cells); assay: MTT cancer cell growth inhibition; type: cell-based; conditions: MTT, 72 hours incubation, read-out: GI50 Hela
Outline: as §1

[14] = test system: BGC-823 (human gastric cancer cells); assay: MTT cancer cell growth inhibition; type: cell-based; conditions: MTT, 72 hours incubation, read-out: GI50 BG
Outline: as §1

[15] = test system: K562 (human leukemia cells); assay: MTT cancer cell growth inhibition; type: cell-based; conditions: MTT, 72 hours incubation, K562 cells, read-out: GI50 K562
Outline: as §1

[16] = test system: DU145 (human prostate cancer cells); assay: MTT cancer cell growth inhibition; type: cell-based; conditions: MTT, 72 hours incubation, read-out: GI50 Du1
Outline: as §1

[17] = test system: HCC827 (human non-small cell lung cancer cells); assay: MTT cancer cell growth inhibition; type: cell-based; conditions: MTT, 72 hours incubation, HCC827 cells, read-out: GI50 HCC827
Outline: as §1

[18] = test system: MDA-MB-231 (breast cancer cells); assay: MTT cancer cell growth inhibition; type: cell-based
Outline: as §1

[19] = test system: U937 (human leukemia cells); assay: MTT cancer cell growth inhibition; type: cell-based; conditions: MTT, 72 hours incubation, read-out: GI50 U93
Outline: as §1

[20] = test system: MOLT-4 (human acute lymphoblastic leukemia cells); assay: MTT cancer cell growth inhibition; type: cell-based; conditions: MTT, 72 hours incubation, read-out: GI50 Mol
Outline: as §1

[21] = target: T1, HDAC7 (Homo sapiens, UniProt Q8WUI4); assay: HDAC biochemical activity measurement (fluorescent substrate deacetylation);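 further: fluorogenic deacetylation assay using acetyl-lysine substrate at 20 µM, enzyme and compound incubated 30 min at 37 °C, then developer added, fluorescence read at 360/460 nm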; conditions: HDAC7; 37° C. 30 minutes
T1 sequence (Q8WUI4 1-952): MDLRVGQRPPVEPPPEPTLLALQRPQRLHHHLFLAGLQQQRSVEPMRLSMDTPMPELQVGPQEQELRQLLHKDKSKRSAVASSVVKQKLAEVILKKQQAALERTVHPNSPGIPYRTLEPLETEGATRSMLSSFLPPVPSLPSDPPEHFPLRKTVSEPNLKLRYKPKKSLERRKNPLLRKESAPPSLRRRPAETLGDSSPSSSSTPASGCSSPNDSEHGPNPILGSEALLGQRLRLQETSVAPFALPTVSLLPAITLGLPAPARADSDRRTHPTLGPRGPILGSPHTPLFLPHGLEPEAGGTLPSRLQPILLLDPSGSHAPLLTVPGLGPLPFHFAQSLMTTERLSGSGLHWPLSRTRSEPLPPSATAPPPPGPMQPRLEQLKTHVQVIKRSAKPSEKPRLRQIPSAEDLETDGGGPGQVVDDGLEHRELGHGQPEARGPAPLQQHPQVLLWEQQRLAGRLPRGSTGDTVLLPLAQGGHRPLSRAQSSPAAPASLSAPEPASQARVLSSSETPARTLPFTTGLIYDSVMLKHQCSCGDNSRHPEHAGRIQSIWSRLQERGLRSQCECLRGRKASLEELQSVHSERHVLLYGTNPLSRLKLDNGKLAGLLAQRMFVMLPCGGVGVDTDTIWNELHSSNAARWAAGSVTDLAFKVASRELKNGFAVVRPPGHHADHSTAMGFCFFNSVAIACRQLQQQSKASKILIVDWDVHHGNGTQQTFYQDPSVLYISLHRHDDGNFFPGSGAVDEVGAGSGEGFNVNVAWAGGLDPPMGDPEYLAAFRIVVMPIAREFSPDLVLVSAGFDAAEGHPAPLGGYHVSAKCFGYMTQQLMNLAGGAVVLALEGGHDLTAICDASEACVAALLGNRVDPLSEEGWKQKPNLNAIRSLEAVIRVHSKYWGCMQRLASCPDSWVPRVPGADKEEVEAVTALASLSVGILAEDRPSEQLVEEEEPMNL

[22] = Homo sapiens, HT-1080, 72 h, HT1080 cells
[23] = Homo sapiens, A549, 72 h, A549 cells
[24] = Homo sapiens, PANC-1, 72 h, PANC-1 cells
[25] = Homo sapiens, LNCaP, 72 h, lncap cells
[26] = Homo sapiens, MCF7, 72 h, MCF-7 cells
[27] = Homo sapiens, HeLa, 72 h, Hela cells
[28] = Homo sapiens, BGC-823, 72 h, BGC-823 cells
[29] = Homo sapiens, DU-145, 72 h, DU145 cells
[30] = Homo sapiens, MDA-MB-231, 72 h, read-out: GI50 MDA-MB-231, MTT, 72 hours incubation, MDA-MB-231 cells
[31] = Homo sapiens, U-937, 72 h, U937 cells
[32] = Homo sapiens, MOLT-4, 72 h, MOLT-4 cells

C/C=C1\NC(=O)c2ccc(SC)c(n2)CNC(=O)C[C@@H](/C=C/CCS)OC(=O)[C@H](C)NC1=O [Compound 234]
GI50 [1, 22]: 10 nM | GI50 [2, 23]: 20 nM | GI50 ([3]; Homo sapiens, NCI-H1975, 72 h): 52 nM | GI50 [4, 24]: 30 nM | GI50 ([5]; Homo sapiens, 72 h): 23 nM | GI50 [6, 25]: 20 nM | GI50 ([7]; Homo sapiens, Huh-7, 72 h): 42 nM | GI50 [8, 26]: 30 nM | GI50 ([9]; Homo sapiens, SGC-7901, 72 h): 39 nM | GI50 ([10]; Homo sapiens, Bel-7402, 72 h): 82 nM | GI50 ([11]; Homo sapiens, 72 h): 32 nM | GI50 ([12]; Homo sapiens, KBM5, 72 h): 12 nM | GI50 [13, 27]: 60 nM | GI50 [14, 28]: 80 nM | GI50 ([15]; Homo sapiens, K562, 72 h): 38 nM | GI50 [16, 29]: 50 nM | GI50 ([17]; Homo sapiens, HCC827, 72 h): 16 nM | GI50 [18, 30]: 39 nM | GI50 [19, 31]: 20 nM | GI50 [20, 32]: 30 nM | IC50 HDAC7 [21]: no activity

C/C=C1\NC(=O)c2cc(SC)cc(n2)CNC(=O)C[C@@H](/C=C/CCSC(=O)CCCCC)OC(=O)[C@H](C(C)C)NC1=O [Compound 154]
GI50 [1, 22]: 90 nM | GI50 [2, 23]: 40 nM | GI50 ([3]; Homo sapiens, NCI-H1975, 72 h): 38 nM | GI50 [4, 24]: 40 nM | GI50 ([5]; Homo sapiens, 72 h): 63 nM | GI50 [6, 25]: 40 nM | GI50 ([7]; Homo sapiens, Huh-7, 72 h): 47 nM | GI50 [8, 26]: 50 nM | GI50 ([9]; Homo sapiens, SGC-7901, 72 h): 12 nM | GI50 ([10]; Homo sapiens, Bel-7402, 72 h): 53 nM | GI50 ([11]; Homo sapiens, 72 h): 71 nM | GI50 ([12]; Homo sapiens, KBM5, 72 h): 29 nM | GI50 [13, 27]: 40 nM | GI50 [14, 28]: 40 nM | GI50 ([15]; Homo sapiens, K562, 72 h): 28 nM | GI50 [16, 29]: 50 nM | GI50 ([17]; Homo sapiens, HCC827, 72 h): 75 nM | GI50 [18, 30]: 53 nM | GI50 [19, 31]: 40 nM | GI50 [20, 32]: 90 nM | IC50 HDAC7 [21]: no activity

C/C=C1\NC(=O)c2cc(SC)cc(n2)CNC(=O)C[C@@H](/C=C/CCSC(C)=O)OC(=O)[C@H](C(C)C)NC1=O [Compound 166]
GI50 [1, 22]: 80 nM | GI50 [2, 23]: 10 nM | GI50 ([3]; Homo sapiens, NCI-H1975, 72 h): 26 nM | GI50 [4, 24]: 20 nM | GI50 ([5]; Homo sapiens, 72 h): 73 nM | GI50 [6, 25]: 70 nM | GI50 ([7]; Homo sapiens, Huh-7, 72 h): 56 nM | GI50 [8, 26]: 60 nM | GI50 ([9]; Homo sapiens, SGC-7901, 72 h): 42 nM | GI50 ([10]; Homo sapiens, Bel-7402, 72 h): 68 nM | GI50 ([11]; Homo sapiens, 72 h): 53 nM | GI50 ([12]; Homo sapiens, KBM5, 72 h): 50 nM | GI50 [13, 27]: 50 nM | GI50 [14, 28]: 70 nM | GI50 ([15]; Homo sapiens, K562, 72 h): 46 nM | GI50 [16, 29]: 60 nM | GI50 ([17]; Homo sapiens, HCC827, 72 h): 31 nM | GI50 [18, 30]: 17 nM | GI50 [19, 31]: 30 nM | GI50 [20, 32]: 30 nM | IC50 HDAC7 [21]: no activity

C=C1NC(=O)c2cc(F)cc(n2)CNC(=O)C[C@@H](/C=C/CCS)OC(=O)[C@H](C(C)C)NC1=O [Compound 133]
GI50 [1]: 80 nM | GI50 [2]: 50 nM | GI50 [3]: 31 nM | GI50 [4]: 50 nM | GI50 [5]: 66 nM | GI50 [6]: 80 nM | GI50 [7]: 33 nM | GI50 [8]: 70 nM | GI50 [9]: 35 nM | GI50 [10]: 32 nM | GI50 [11]: 16 nM | GI50 [12]: 36 nM | GI50 [13]: 20 nM | GI50 [14]: 50 nM | GI50 [15]: 16 nM | GI50 [16]: 70 nM | GI50 [17]: 36 nM | GI50 ([18]; read-out: GI50 MDA-MB-231, MTT, 72 hours incubation, MDA-MB-231 cells): 35 nM | GI50 [19]: 50 nM | GI50 [20]: 80 nM | IC50 HDAC7 [21]: no activity

C/C=C1\NC(=O)c2nc(ccc2SC)CNC(=O)C[C@@H](/C=C/CCS)OC(=O)[C@H](CC)NC1=O [Compound 229]
GI50 [1, 22]: 10 nM | GI50 [2, 23]: 60 nM | GI50 ([3]; Homo sapiens, NCI-H1975, 72 h): 38 nM | GI50 [4, 24]: 50 nM | GI50 ([5]; Homo sapiens, 72 h): 77 nM | GI50 [6, 25]: 30 nM | GI50 ([7]; Homo sapiens, Huh-7, 72 h): 28 nM | GI50 [8, 26]: 70 nM | GI50 ([9]; Homo sapiens, SGC-7901, 72 h): 91 nM | GI50 ([10]; Homo sapiens, Bel-7402, 72 h): 37 nM | GI50 ([11]; Homo sapiens, 72 h): 53 nM | GI50 ([12]; Homo sapiens, KBM5, 72 h): 71 nM | GI50 [13, 27]: 30 nM | GI50 [14, 28]: 740 nM | GI50 ([15]; Homo sapiens, K562, 72 h): 86 nM | GI50 [16, 29]: 50 nM | GI50 ([17]; Homo sapiens, HCC827, 72 h): 77 nM | GI50 [18, 30]: 23 nM | GI50 [19, 31]: 20 nM | GI50 [20, 32]: 30 nM | IC50 HDAC7 [21]: no activity

Source: US10065990B2, “Cyclic peptide compound, and preparation method, pharmaceutical composition and use thereof” (HANGZHOU GUANYU BIO-MEDICAL CO., LTD, priority 2013, dated 2018)
